How the values were obtained:
[1] = Log D shake flask method (octanol / PBS pH 7.4, HPLC); type: physicochemical; conditions: octanol/phosphate-buffered saline (PBS); octanol / PBS pH 7.4, shake flask
Experimental: In order to classify the inventive compounds according to their lipophilicity, Log D values (distribution coefficient) were determined by means of the well-established shake flask method, measuring the partition of a compound between an octanol and phosphate-buffered saline (PBS, pH 7.4) by HPLC.

[2] = target: T1, recombinant human transglutaminase 2 (Homo sapiens, UniProt P21980); experiment: Transglutaminase assay (dansylcadaverine incorporation into dimethylcasein, DCC-assay); type: biochemical; conditions: recombinant human TG2 10 nM, dansylcadaverine/dimethylcasein, 37° C.
T1 construct: purchased Zedira T022
T1 sequence (P21980 1-687): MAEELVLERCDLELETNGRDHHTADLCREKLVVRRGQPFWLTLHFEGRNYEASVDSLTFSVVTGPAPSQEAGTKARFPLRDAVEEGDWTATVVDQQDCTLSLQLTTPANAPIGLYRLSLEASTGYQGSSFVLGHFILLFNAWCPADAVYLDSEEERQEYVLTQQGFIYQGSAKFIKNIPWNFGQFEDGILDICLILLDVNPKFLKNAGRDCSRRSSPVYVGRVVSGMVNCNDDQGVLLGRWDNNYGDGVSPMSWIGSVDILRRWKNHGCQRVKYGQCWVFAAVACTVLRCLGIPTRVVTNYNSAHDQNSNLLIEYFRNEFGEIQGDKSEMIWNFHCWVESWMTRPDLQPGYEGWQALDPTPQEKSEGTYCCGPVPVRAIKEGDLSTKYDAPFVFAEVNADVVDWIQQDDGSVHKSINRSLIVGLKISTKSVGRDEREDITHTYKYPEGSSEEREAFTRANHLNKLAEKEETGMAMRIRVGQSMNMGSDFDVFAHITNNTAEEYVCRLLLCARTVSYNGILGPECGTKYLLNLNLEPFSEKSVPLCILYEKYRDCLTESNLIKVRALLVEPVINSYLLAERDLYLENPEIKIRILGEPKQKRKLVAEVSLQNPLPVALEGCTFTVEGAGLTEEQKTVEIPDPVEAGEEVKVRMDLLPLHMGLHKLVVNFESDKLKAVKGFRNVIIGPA
Summary of the method: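 IC50 derived from fluorescence slope between 20 and 30 min (λex 330 nm, λem 500 nm, 37 °C), expressed relative to a 2% DMSO control. Reaction: 10 nM recombinant human TG2, 4 μM dimethylcasein, 16.7 μM dansylcadaverine, 10 mM CaCl2 and glutathione, pH 8.0.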

[3] = Caco-2 permeability assay (CacoReady kit); type: in vitro ADME; conditions: human
Summary of the method: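 Compounds are tested on pre-formed Caco-2 barriers supplied as a ready-to-use kit, following the kit protocol, and the Papp value is derived to estimate intestinal absorption.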

| Structure (SMILES) | logD [1] | IC50 [2] [nM] | Papp [3] [×10⁻⁶ cm/s] |
| --- | --- | --- | --- |
| COC(=O)/C=C/CC[C@H](NC(=O)c1cnn(C)c1)C(=O)Nc1cccn(CC(=O)NC2C3CC4CC(C3)CC2C4)c1=O (stereo partly drawn) [III-130, (S,E)-methyl 7-(1-(2-(2-adamantylamino)-2-oxoethyl)-2-oxo-1,2-dihydropyridin-3-ylamino)-6-(1-methyl-1H-pyrazole-4-carboxamido)-7-oxohept-2-enoate] | 1 to 3 | 25 to 250 | < 1 |
| O=C(/C=C/CC[C@H](NC(=O)c1ccc2c(c1)NCCC2)C(=O)Nc1cccn(CC(=O)NC23CC(C2)C3)c1=O)NC1CCCCC1 [III-149, (S,E)-N7-(1-(2-(bicyclo[1.1.1]pentan-1-ylamino)-2-oxoethyl)-2-oxo-1,2-dihydropyridin-3-yl)-N1-cyclohexyl-6-(1,2,3,4-tetrahydroquinoline-7-carboxamido)hept-2-enediamide] | 1 to 3 | 250 to 1500 | < 1 |
| COC(=O)/C=C/CC[C@H](NC(=O)c1oc2ccccc2c1C)C(=O)Nc1cccn(CC(=O)N[C@@H]2C[C@@H]3C[C@H]([C@H]2C)C3(C)C)c1=O [III-69, (S,E)-methyl 6-(3-methylbenzofuran-2-carboxamido)-7-oxo-7-(2-oxo-1-(2-oxo-2-((1R,2R,3R,5S)-2,6,6-trimethylbicyclo[3.1.1]heptan-3-ylamino)ethyl)-1,2-dihydropyridin-3-ylamino)hept-2-enoate] | 3 to 5 | < 25 | 1 to 10 |
| CCOC(=O)/C=C/CC[C@H](NC(=O)c1oc2ccccc2c1C)C(=O)Nc1cccn(CC(=O)NC2C3CC4CC(C3)CC2C4)c1=O (stereo partly drawn) [III-89, (S,E)-ethyl 7-(1-(2-(2-adamantylamino)-2-oxoethyl)-2-oxo-1,2-dihydropyridin-3-ylamino)-6-(3-methylbenzofuran-2-carboxamido)-7-oxohept-2-enoate] | 3 to 5 | < 25 | 1 to 10 |
| O=C(/C=C/CC[C@H](NC(=O)c1cc2ccccc2nn1)C(=O)Nc1cccn(CC(=O)NC23CC(C2)C3)c1=O)NC1CC1 [III-145, (S,E)-N7-(1-(2-(bicyclo[1.1.1]pentan-1-ylamino)-2-oxoethyl)-2-oxo-1,2-dihydropyridin-3-yl)-6-(cinnoline-3-carboxamido)-N1-cyclopropylhept-2-enediamide] | < 1 | 25 to 250 | < 1 |
| COC(=O)/C=C/CC[C@H](NC(=O)c1c[nH]c(C(N)=O)c1)C(=O)Nc1cccn(CC(=O)NC23CC(C2)C3)c1=O [III-163, (S,E)-methyl 7-(1-(2-(bicyclo[1.1.1]pentan-1-ylamino)-2-oxoethyl)-2-oxo-1,2-dihydropyridin-3-ylamino)-6-(5-carbamoyl-1H-pyrrole-3-carboxamido)-7-oxohept-2-enoate] | < 1 | 250 to 1500 | < 1 |
| COC(=O)/C=C/CC[C@H](NC(=O)c1oc2ccccc2c1C)C(=O)Nc1cccn(CC(=O)NC23CC4CC(C2)CC(C(=O)OC)(C4)C3)c1=O [III-54, (S,E)-methyl 7-(1-(2-(3-methyladamantane-3-carboxylate-1-amino)-2-oxoethyl)-2-oxo-1,2-dihydropyridin-3-ylamino)-6-(3-methylbenzofuran-2-carboxamido)-7-oxohept-2-enoate] | 3 to 5 | 25 to 250 | < 1 |
| COC(=O)/C=C/CC[C@H](NC(=O)c1sc(C(F)(F)F)nc1C)C(=O)Nc1cccn(CC(=O)N[C@H]2C[C@H]3CC[C@]2(C)C3(C)C)c1=O [III-127, (S,E)-methyl 6-(4-methyl-2-(trifluoromethyl)thiazole-5-carboxamido)-7-oxo-7-(2-oxo-1-(2-oxo-2-((1R,2S,4R)-1,7,7-trimethylbicyclo[2.2.1]heptan-2-ylamino)ethyl)-1,2-dihydropyridin-3-ylamino)hept-2-enoate] | 3 to 5 | < 25 | 1 to 10 |
| Cc1c(C(=O)N[C@@H](CC/C=C/C(=O)N(C)C)C(=O)Nc2cccn(CC(=O)NC3C4CC5CC(C4)CC3C5)c2=O)oc2ccccc12 (stereo partly drawn) [III-75, (S,E)-N^7-(1-(2-(2-adamantylamino)-2-oxoethyl)-2-oxo-1,2-dihydropyridin-3-yl)-N^1,N^1-dimethyl-6-(3-methylbenzofuran-2-carboxamido)hept-2-enediamide] | 3 to 5 | 25 to 250 | 1 to 10 |

Reference: US20240317708A1, “INHIBITORS OF TRANSGLUTAMINASES” (ZEDIRA GMBH, priority 2021, published 2024)
